Measured values from patent publication US9499493B2, “2,4-pyrimidinediamine compounds and their uses” (Rigel Pharmaceuticals, Inc., priority 2002, dated 2016).

Key:
[1] = tested on: cultured human mast cells (CHMC); test: CHMC low cell density IgE activation: tryptase assay; format: cell-based; conditions: anti-IgE
Outline: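 Degranulation is read as supernatant tryptase activity, using tryptase substrate incubated 30 min at room temperature. Before this, CHMC at low density (1000-1500 cells/well) rest 1 hr at 37° C and are triggered with anti-IgE for 30 min at 37° C.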

[2] = tested on: cultured human mast cells (CHMC); test: CHMC low cell density ionomycin activation: tryptase assay; format: cell-based

Structure (SMILES) | IC50 [1] | IC50 [2]
CNC(=O)COc1cccc(Nc2ncc(F)c(Nc3ccc4c(c3)NC(=O)C(C)(C)O4)n2)c1 [R940323, N4-[(2,2-Dimethyl-4H-benzo[1,4]oxazin-3-one)-6-yl]-5-fluoro-N2-[3-(methylaminocarbonylmethyleneoxy)phenyl]-2,4-pyrimidinediamine] | 48 nM | > 10000 nM
Cn1ncc2cc(Nc3ncc(F)c(Nc4ccc5c(c4)NC(=O)C(C)(C)O5)n3)ccc21 [R940338, N4-[(2,2-Dimethyl-4H-benzo[1,4]oxazin-3-one)-6-yl]-5-fluoro-N2-(1-methylindazolin-5-yl)-2,4-pyrimidinediamine] | 73 nM | > 10000 nM
CC1(C)Oc2ccc(Nc3nc(Nc4ccc5c(c4)NC(=O)C(F)(F)O5)ncc3F)cc2NC1=O [R940351, N2-[(2,2-Difluoro-4H-benzo[1,4]oxazin-3-one)-6-yl]-N4-[(2,2-dimethyl-4H-benzo[1,4]oxazin-3-one)-6-yl]-5-fluoro-2,4-pyrimidinediamine] | 120 nM | 2700 nM
COC(=O)c1cc2cc(Nc3ncc(F)c(Nc4ccc5c(c4)NC(=O)C(F)(F)O5)n3)ccc2o1 [R940353, N4-[(2,2-Difluoro-4H-benzo[1,4]oxazin-3-one)-6-yl]-5-fluoro-N2-(2-methoxycarbonylbenzofur-5-yl)-2,4-pyrimidinediamine] | 91 nM | > 10000 nM
NC(=O)COc1ccc(Nc2ncc(F)c(Nc3ccc(OCC(N)=O)cc3)n2)cc1 [R945025, N2,N4-Bis[4-(aminocarbonylmethyleneoxy)phenyl]-5-fluoro-2,4-pyrimidinediamine] | > 10000 nM | > 10000 nM
Cn1nnc(COc2ccc(Nc3ncc(F)c(Nc4ccc(OCc5nnn(C)n5)cc4)n3)cc2)n1 [R945046, N2,N4-Bis[4-(2-methyl-1,2,3,4-tetrazol-5-yl)methyleneoxyphenyl]-5-fluoro-2,4-pyrimidinediamine] | 820 nM | > 10000 nM
Cn1nnc(COc2ccc(Nc3nc(Nc4ccc(OCc5nnnn5C)cc4)ncc3F)cc2)n1 [R945047, 5-Fluoro-N2,N4-[4-(1-methyl-1,2,3,4-tetrazol-5-yl)methyleneoxyphenyl], [4-(2-methyl-1,2,3,4-tetrazol-5-yl)methyleneoxyphenyl]-2,4-pyrimidinediamine] | 845 nM | > 10000 nM
Cn1nnnc1COc1ccc(Nc2ncc(F)c(Nc3ccc(OCc4nnnn4C)cc3)n2)cc1 [R945048, N2,N4-Bis[4-(1-methyl-1,2,3,4-tetrazol-5-yl)methyleneoxyphenyl]-5-fluoro-2,4-pyrimidinediamine] | 760 nM | > 10000 nM
COC(=O)COc1ccc(Nc2ncc(F)c(Nc3ccc(OCC(N)=O)cc3)n2)cc1 [R945052, N4-(4-Aminocarbonylmethyleneoxyphenyl)-5-fluoro-N2-(4-methoxycarbonylmethyleneoxyphenyl)-2,4-pyrimidinediamine] | 425 nM | 2480 nM
COC(=O)COc1ccc(Nc2ncc(F)c(Nc3ccc(OCC#N)cc3)n2)cc1 [R945053, N4-(4-Cyanomethyleneoxyphenyl)5-fluoro-N2-(4-methoxycarbonylmethyleneoxyphenyl)-2,4-pyrimidinediamine] | 118 nM | 1480 nM
COC(=O)COc1ccc(Nc2nc(Nc3ccc(OCC(N)=O)cc3)ncc2F)cc1 [R945060, N2-(4-Aminocarbonylmethyleneoxyphenyl)-5-fluoro-N4-(4-methoxycarbonylmethyleneoxyphenyl)-2,4-pyrimidinediamine] | 938 nM | > 10000 nM
COC(=O)COc1ccc(Nc2nc(Nc3ccc(OCC#N)cc3)ncc2F)cc1 [R945062, N2-(4-Cyanomethyleneoxyphenyl)-5-fluoro-N4-(4-methoxycarbonylmethyleneoxyphenyl)-2,4-pyrimidinediamine] | 625 nM | > 10000 nM
CON=C(N)COc1ccc(Nc2ncc(F)c(Nc3ccc(OCC(N)=NOC)cc3)n2)cc1 [R945096, N2,N4-Bis[4-[2-methoxyimino(amino)ethyleneoxy]phenyl]-5-fluoro-2,4-pyrimidinediamine] | 1750 nM | > 10000 nM
N#CCOc1ccc(Nc2nc(Nc3ccc(OCC(=O)O)cc3)ncc2F)cc1 [R945097, N2-(4-Carboxymethyleneoxyphenyl)-N4-(4-cyanomethyleneoxyphenyl)-5-fluoro-2,4-pyrimidinediamine] | 10000 nM | > 10000 nM
COC(=O)COc1cccc(Nc2ncc(F)c(Nc3ccc4c(c3)OCCO4)n2)c1 [R945124, N4-(3,4-Ethylenedioxyphenyl)-5-fluoro-N2-(3-methoxycarbonylmethyleneoxyphenyl)-2,4-pyrimidinediamine] | 690 nM | 7850 nM
COC(=O)COc1cccc(Nc2ncc(F)c(Nc3ccc(OC(C)C)cc3)n2)c1 [R945125, 5-Fluoro-N4-(4-isopropoxyphenyl)-N2-(3-methoxycarbonylmethyleneoxyphenyl)-2,4-pyrimidinediamine] | 896 nM | > 10000 nM

Other lines, results leading:

IC50 [1] | IC50 [2] | Structure (SMILES)
1130 nM | > 10000 nM | CNC(=O)COc1cccc(Nc2ncc(F)c(Nc3cccc(CN)c3)n2)c1 [R940309, N4-(3-Aminomethylenephenyl)-5-fluoro-N2-[3-(methylaminocarbonylmethyleneoxy)phenyl]-2,4-pyrimidinediamine]
913 nM | > 10000 nM | CNCc1cccc(Nc2nc(Nc3cccc(OCC(=O)NC)c3)ncc2F)c1 [R940317, N4-(3-N-methylaminomethylenephenyl)-5-fluoro-N2-[3-(methylaminocarbonylmethyleneoxy)phenyl]-2,4-pyrimidinediamine]
44 nM | 7400 nM | O=C1Nc2cc(Nc3nc(Nc4cccc(O)c4)ncc3F)ccc2OC1(F)F [R940349, N4-[(2,2-Difluoro-4H-benzo[1,4]oxazin-3-one)-6-yl]-5-fluoro-N2-(3-hydroxyphenyl)-2,4-pyrimidinediamine]
1550 nM | > 10000 nM | NC(=O)COc1ccc(Nc2nc(Nc3cccc(O)c3)ncc2F)cc1 [R945063, N4-[4-(Aminocarbonylmethyleneoxy)phenyl]-5-fluoro-N2-(3-hydroxyphenyl)-2,4-pyrimidinediamine]
530 nM | > 10000 nM | NC(=O)COc1ccc(Nc2ncc(F)c(Nc3cccc(O)c3)n2)cc1 [R945064, N2-[4-(Aminocarbonylmethyleneoxy)phenyl]-5-fluoro-N4-(3-hydroxyphenyl)-2,4-pyrimidinediamine]
668 nM | > 10000 nM | COC(=O)COc1cccc(Nc2ncc(F)c(Nc3cccc(O)c3)n2)c1 [R945118, 5-Fluoro-N4-(3-hydroxyphenyl)-N2-(3-methoxycarbonylmethyleneoxyphenyl)-2,4-pyrimidinediamine]
> 10000 nM | > 10000 nM | O=C(O)COc1cccc(Nc2ncc(F)c(Nc3cccc(O)c3)n2)c1 [R945126, N2-(3-Carboxymethyleneoxyphenyl)-5-fluoro-N4-(3-hydroxyphenyl)-2,4-pyrimidinediamine]
704 nM | 8960 nM | Cc1nc(COc2cccc(Nc3ncc(F)c(Nc4cccc(O)c4)n3)c2)no1 [R945127, 5-Fluoro-N4-(3-hydroxyphenyl)-N2-[3-(5-methyl-1,2,4-oxadiazol-3-yl)methyleneoxyphenyl]-2,4-pyrimidinediamine]
1000 nM | > 10000 nM | Cc1nc(COc2cccc(Nc3ncc(F)c(Nc4ccc(OC(C)C)cc4)n3)c2)no1 [R945129, 5-Fluoro-N4-(4-isopropoxyphenyl)-N2-[3-(5-methyl-1,2,4-oxadiazol-3-yl)methyleneoxyphenyl]-2,4-pyrimidinediamine]
1870 nM | > 10000 nM | Cc1noc(COc2cccc(Nc3nc(Nc4cccc(O)c4)ncc3F)c2)n1 [R945130, 5-Fluoro-N2-(3-hydroxyphenyl)-N4-[3-(3-methyl-1,2,4-oxadiazol-5-yl)methyleneoxyphenyl]-2,4-pyrimidinediamine]
770 nM | > 10000 nM | COC(=O)c1cc2cc(Nc3nc(Nc4cccc(OCc5noc(C)n5)c4)ncc3F)ccc2o1 [R945131, 5-Fluoro-N4-(2-methoxycarbonylbenzofuran-5-yl)-N2-[3-(5-methyl-1,2,4-oxadiazol-3-yl)methyleneoxyphenyl]-2,4-pyrimidinediamine]
571 nM | 8770 nM | Cc1nc(COc2cccc(Nc3nc(Nc4cccc(O)c4)ncc3F)c2)no1 [R945132, 5-Fluoro-N2-(3-hydroxyphenyl)-N4-[3-(5-methyl-1,2,4-oxadiazol-3-yl)methyleneoxyphenyl]-2,4-pyrimidinediamine]
1060 nM | > 10000 nM | Cc1nc(COc2cccc(Nc3nc(Nc4ccc(OCC(N)=O)cc4)ncc3F)c2)no1 [R945133, N2-[4-(Aminocarbonylmethoxy)phenyl]-5-fluoro-N4-[3-(5-methyl-1,2,4-oxadiazol-3-yl)methyleneoxyphenyl]-2,4-pyrimidinediamine]
> 10000 nM | > 10000 nM | Cc1nc(COc2cccc(Nc3ncc(F)c(Nc4ccc5oc(C(=O)O)cc5c4)n3)c2)no1 [R945134, N4-(2-Carboxybenzofuran-5-yl)-5-fluoro-N2-[3-(5-methyl-1,2,4-oxadiazol-3-yl)methyleneoxyphenyl]-2,4-pyrimidinediamine]
986 nM | 8240 nM | Cc1nc(COc2cccc(Nc3ncc(F)c(Nc4ccc5oc(C(N)=O)cc5c4)n3)c2)no1 [R945135, N4-(2-Aminocarbonylbenzofuran-5-yl)-5-fluoro-N2-[3-(5-methyl-1,2,4-oxadiazol-3-yl)methyleneoxyphenyl]-2,4-pyrimidinediamine]
1650 nM | > 10000 nM | Cc1nc(COc2cccc(Nc3nc(Nc4ccc5c(c4)OCCO5)ncc3F)c2)no1 [R945137, N2-(3,4-Ethylenedioxyphenyl)-5-fluoro-N4-[3-(5-methyl-1,2,4-oxadiazol-3-yl)methyleneoxyphenyl]-2,4-pyrimidinediamine]
1060 nM | 6730 nM | Cc1nc(COc2cccc(Nc3nc(Nc4ccc(OC(C)C)cc4)ncc3F)c2)no1 [R945138, 5-Fluoro-N2-(4-isopropoxyphenyl)-N4-[3-(5-methyl-1,2,4-oxadiazol-3-yl)methyleneoxyphenyl]-2,4-pyrimidinediamine]
